In brackets after ≈: the same amount, converted by molar mass. Activity calls are given as the source filed them. The calls are words filed in the database; no cut-off is given here.
Experiments:
Penicillium chrysogenum [1] = assay: Antifungal activity against Penicillium chrysogenum NCIM 707 at 1000 ug/disk after 72 hr by disk diffusion method; format: functional; settings: NCIM 707, 72 h, read-out: DIZ
Bacillus subtilis [2] = assay: Antibacterial activity against Bacillus subtilis NCIM 2063 after 24 hr by broth dilution assay; format: functional; settings: NCIM 2063, 24 h
Lipomyces lipofer [3] = assay: Antifungal activity against Lipomyces lipofer NCIM 3252 after 72 hr by broth dilution assay; format: functional; settings: NCIM 3252, 72 h
Escherichia coli [4] = assay: Antibacterial activity against Escherichia coli NCIM 2065 at 1000 ug/disk after 24 hr by disk diffusion method; format: functional; settings: NCIM 2065, 24 h, read-out: DIZ
Klebsiella aerogenes [5] = assay: Antibacterial activity against Enterobacter aerogenes NCIM 2239 at 500 ug/disk after 24 hr by disk diffusion method; format: functional; settings: for zone of inhibition at 500 µg/disc: NCIM 2239, 24 h, read-out: DIZ
Lipomyces lipofer [6] = assay: Antifungal activity against Lipomyces lipofer NCIM 3252 at 1000 ug/disk after 72 hr by disk diffusion method; format: functional; settings: NCIM 3252, 72 h, read-out: DIZ
Pseudomonas aeruginosa [7] = assay: Antibacterial activity against Pseudomonas aeruginosa NCIM 2200 at 500 ug/disk after 24 hr by disk diffusion method; format: functional; settings: for zone of inhibition at 500 µg/disc: NCIM 2200, 24 h, read-out: DIZ
Streptomyces albus [8] = assay: Antibacterial activity against Streptomyces albus NCIM 2178 after 24 hr by broth dilution assay; format: functional; settings: NCIM 2178, 24 h
Pseudomonas aeruginosa [9] = assay: Antibacterial activity against Pseudomonas aeruginosa NCIM 2200 at 1000 ug/disk after 24 hr by disk diffusion method; format: functional; settings: NCIM 2200, 24 h, read-out: DIZ
Penicillium chrysogenum [10] = assay: Antifungal activity against Penicillium chrysogenum NCIM 707 at 500 ug/disk after 72 hr by disk diffusion method; format: functional; settings: for zone of inhibition at 500 µg/disc: NCIM 707, 72 h, read-out: DIZ
Klebsiella aerogenes [11] = assay: Antibacterial activity against Enterobacter aerogenes NCIM 2239 after 24 hr by broth dilution assay; format: functional; settings: NCIM 2239, 24 h
Streptomyces albus [12] = assay: Antibacterial activity against Streptomyces albus NCIM 2178 at 500 ug/disk after 24 hr by disk diffusion method; format: functional, organism-based
Lipomyces lipofer [13] = assay: Antifungal activity against Lipomyces lipofer NCIM 3252 at 500 ug/disk after 72 hr by disk diffusion method; format: functional; settings: for zone of inhibition at 500 µg/disc: NCIM 3252, 72 h, read-out: DIZ
Aspergillus niger [14] = assay: Antifungal activity against Aspergillus niger NCIM 1196 after 72 hr by broth dilution assay; format: functional; settings: NCIM 1196, 72 h
Bacillus subtilis [15] = assay: Antibacterial activity against Bacillus subtilis NCIM 2063 at 500 ug/disk after 24 hr by disk diffusion method; format: functional; settings: for zone of inhibition at 500 µg/disc: NCIM 2063, 24 h, read-out: DIZ
Bacillus cereus [16] = assay: Antibacterial activity against Bacillus cereus NCIM 2155 at 500 ug/disk after 24 hr by disk diffusion method; format: functional; settings: NCIM 2155, 24 h, read-out: DIZ
Bacillus cereus [17] = assay: Antibacterial activity against Bacillus cereus NCIM 2155 after 24 hr by broth dilution assay; format: functional; settings: NCIM 2155, 24 h
Bacillus cereus [18] = assay: Antibacterial activity against Bacillus cereus NCIM 2155 at 1000 ug/disk after 24 hr by disk diffusion method; format: functional; settings: NCIM 2155, 24 h, read-out: DIZ
Candida albicans [19] = assay: Antifungal activity against Candida albicans NCIM 3471 at 1000 ug/disk after 72 hr by disk diffusion method; format: functional; settings: NCIM 3471, 72 h, read-out: DIZ
Pseudomonas aeruginosa [20] = assay: Antibacterial activity against Pseudomonas aeruginosa NCIM 2200 after 24 hr by broth dilution assay; format: functional; settings: NCIM 2200, 24 h
Bacillus subtilis [21] = assay: Antibacterial activity against Bacillus subtilis NCIM 2063 at 1000 ug/disk after 24 hr by disk diffusion method; format: functional; settings: NCIM 2063, 24 h, read-out: DIZ
Rhodotorula mucilaginosa [22] = assay: Antifungal activity against Rhodotorula mucilaginosa NCIM 3174 after 72 hr by broth dilution assay; format: functional; settings: NCIM 3174, 72 h
Aspergillus flavus [23] = assay: Antifungal activity against Aspergillus flavus NCIM 535 after 72 hr by broth dilution assay; format: functional; settings: NCIM 535, 72 h
Candida albicans [24] = assay: Antifungal activity against Candida albicans NCIM 3471 after 72 hr by broth dilution assay; format: functional; settings: NCIM 3471, 72 h
Penicillium chrysogenum [25] = assay: Antifungal activity against Penicillium chrysogenum NCIM 707 after 72 hr by broth dilution assay; format: functional; settings: NCIM 707, 72 h
Rhodotorula mucilaginosa [26] = assay: Antifungal activity against Rhodotorula mucilaginosa NCIM 3174 at 500 ug/disk after 72 hr by disk diffusion method; format: functional; settings: for zone of inhibition at 500 µg/disc: NCIM 3174, 72 h, read-out: DIZ
Streptomyces albus [27] = assay: Antibacterial activity against Streptomyces albus NCIM 2178 at 1000 ug/disk after 24 hr by disk diffusion method; format: functional; settings: NCIM 2178, 24 h, read-out: DIZ
Aspergillus niger [28] = assay: Antifungal activity against Aspergillus niger NCIM 1196 at 500 ug/disk after 72 hr by disk diffusion method; format: functional
Rhodotorula mucilaginosa [29] = assay: Antifungal activity against Rhodotorula mucilaginosa NCIM 3174 at 1000 ug/disk after 72 hr by disk diffusion method; format: functional; settings: NCIM 3174, 72 h, read-out: DIZ
Escherichia coli [30] = assay: Antibacterial activity against Escherichia coli NCIM 2065 at 500 ug/disk after 24 hr by disk diffusion method; format: functional; settings: for zone of inhibition at 500 µg/disc: NCIM 2065, 24 h, read-out: DIZ
Escherichia coli [31] = assay: Antibacterial activity against Escherichia coli NCIM 2065 after 24 hr by broth dilution assay; format: functional; settings: NCIM 2065, 24 h
Candida albicans [32] = assay: Antifungal activity against Candida albicans NCIM 3471 at 500 ug/disk after 72 hr by disk diffusion method; format: functional; settings: for zone of inhibition at 500 µg/disc: NCIM 3471, 72 h, read-out: DIZ
Aspergillus flavus [33] = assay: Antifungal activity against Aspergillus flavus NCIM 535 at 1000 ug/disk after 72 hr by disk diffusion method; format: functional; settings: NCIM 535, 72 h, read-out: DIZ
Klebsiella aerogenes [34] = assay: Antibacterial activity against Enterobacter aerogenes NCIM 2239 at 1000 ug/disk after 24 hr by disk diffusion method; format: functional; settings: NCIM 2239, 24 h, read-out: DIZ
Aspergillus niger [35] = assay: Antifungal activity against Aspergillus niger NCIM 1196 at 1000 ug/disk after 72 hr by disk diffusion method; format: functional; settings: for zone of inhibition at 1000 µg/disc: NCIM 1196, 72 h, read-out: DIZ
Aspergillus flavus [36] = assay: Antifungal activity against Aspergillus flavus NCIM 535 at 500 ug/disk after 72 hr by disk diffusion method; format: functional; settings: NCIM 535, 72 h, read-out: DIZ

| MIC (Bacillus subtilis [2]) [µg/mL] | MIC (Lipomyces lipofer [3]) [µg/mL] | MIC (Streptomyces albus [8]) [µg/mL] | MIC (Klebsiella aerogenes [11]) [µg/mL] | MIC (Aspergillus niger [14]) [µg/mL] | MIC (Bacillus cereus [17]) [µg/mL] | MIC (Pseudomonas aeruginosa [20]) [µg/mL] | MIC (Rhodotorula mucilaginosa [22]) [µg/mL] | MIC (Aspergillus flavus [23]) [µg/mL] | MIC (Candida albicans [24]) [µg/mL] | MIC (Penicillium chrysogenum [25]) [µg/mL] | SMILES | zone of inhibition at 1000 µg/disc (Penicillium chrysogenum [1]) [mm] | zone of inhibition at 1000 µg/disc (Escherichia coli [4]) [mm] | zone of inhibition at 1000 µg/disc (Lipomyces lipofer [6]) [mm] | zone of inhibition at 1000 µg/disc (Pseudomonas aeruginosa [9]) [mm] | diameter of the inhibition zone (DIZ) (Streptomyces albus [12]) | zone of inhibition at 500 µg/disc (Bacillus cereus [16]) [mm] | zone of inhibition at 1000 µg/disc (Bacillus cereus [18]) [mm] | zone of inhibition at 1000 µg/disc (Candida albicans [19]) [mm] | zone of inhibition at 1000 µg/disc (Bacillus subtilis [21]) [mm] | also measured |
| --- | --- | --- | --- | --- | --- | --- | --- | --- | --- | --- | --- | --- | --- | --- | --- | --- | --- | --- | --- | --- | --- |
| 15.6 (≈ 68.7 µM) | 15.6 (≈ 68.7 µM) | 62.5 (≈ 275 µM) | 7.8 (≈ 34.3 µM) | 31.2 (≈ 137 µM) | 7.8 (≈ 34.3 µM) | 3.9 (≈ 17.2 µM) | 7.8 (≈ 34.3 µM) | 7.8 (≈ 34.3 µM) | 15.6 (≈ 68.7 µM) | 15.6 (≈ 68.7 µM) | Cc1ccc2nc3[nH]c(=O)[nH]c(=O)c3cc2c1 | 11 | 12 | 13 | 17 | inactive | 11 | 13 | 10 | 11 | zone of inhibition at 500 µg/disc (Klebsiella aerogenes [5]): 10 mm; zone of inhibition at 500 µg/disc (Pseudomonas aeruginosa [7]): 16 mm; zone of inhibition at 500 µg/disc (Penicillium chrysogenum [10]): 10 mm; zone of inhibition at 500 µg/disc (Lipomyces lipofer [13]): 11 mm; zone of inhibition at 500 µg/disc (Bacillus subtilis [15]): 9 mm; zone of inhibition at 500 µg/disc (Rhodotorula mucilaginosa [26]): 9 mm; zone of inhibition at 1000 µg/disc (Streptomyces albus [27]): 9 mm; diameter of the inhibition zone (DIZ) (Aspergillus niger [28]): inactive; zone of inhibition at 1000 µg/disc (Rhodotorula mucilaginosa [29]): 13 mm; diameter of the inhibition zone (DIZ) (Escherichia coli [30]): inactive; MIC (Escherichia coli [31]): 7.8 µg/mL (≈ 34.3 µM); zone of inhibition at 500 µg/disc (Candida albicans [32]): 8 mm; zone of inhibition at 1000 µg/disc (Aspergillus flavus [33]): 10 mm; zone of inhibition at 1000 µg/disc (Klebsiella aerogenes [34]): 11 mm; zone of inhibition at 1000 µg/disc (Aspergillus niger [35]): 11 mm; zone of inhibition at 500 µg/disc (Aspergillus flavus [36]): 9 mm |
| 15.6 (≈ 73.2 µM) | 62.5 (≈ 293 µM) | 31.2 (≈ 146 µM) | 31.2 (≈ 146 µM) | 125 (≈ 586 µM) | 31.2 (≈ 146 µM) | 31.2 (≈ 146 µM) | 7.8 (≈ 36.6 µM) | 3.9 (≈ 18.3 µM) | 15.6 (≈ 73.2 µM) | 7.8 (≈ 36.6 µM) | O=c1[nH]c(=O)c2cc3ccccc3nc2[nH]1 | 13 | 13 | 11 | 14 | inactive | 9 | 13 | 12 | 11 | zone of inhibition at 500 µg/disc (Klebsiella aerogenes [5]): 8 mm; zone of inhibition at 500 µg/disc (Pseudomonas aeruginosa [7]): 10 mm; zone of inhibition at 500 µg/disc (Penicillium chrysogenum [10]): 8 mm; zone of inhibition at 500 µg/disc (Lipomyces lipofer [13]): 9 mm; zone of inhibition at 500 µg/disc (Bacillus subtilis [15]): 8 mm; zone of inhibition at 500 µg/disc (Rhodotorula mucilaginosa [26]): 10 mm; zone of inhibition at 1000 µg/disc (Streptomyces albus [27]): 13 mm; diameter of the inhibition zone (DIZ) (Aspergillus niger [28]): inactive; zone of inhibition at 1000 µg/disc (Rhodotorula mucilaginosa [29]): 11 mm; zone of inhibition at 500 µg/disc (Escherichia coli [30]): 11 mm; MIC (Escherichia coli [31]): 3.9 µg/mL (≈ 18.3 µM); zone of inhibition at 500 µg/disc (Candida albicans [32]): 9 mm; zone of inhibition at 1000 µg/disc (Aspergillus flavus [33]): 14 mm; zone of inhibition at 1000 µg/disc (Klebsiella aerogenes [34]): 11 mm; zone of inhibition at 1000 µg/disc (Aspergillus niger [35]): 10 mm; zone of inhibition at 500 µg/disc (Aspergillus flavus [36]): 11 mm |
| 31.2 (≈ 137 µM) | 31.2 (≈ 137 µM) | 62.5 (≈ 275 µM) | 15.6 (≈ 68.7 µM) | 125 (≈ 550 µM) | 15.6 (≈ 68.7 µM) | 7.8 (≈ 34.3 µM) | 15.6 (≈ 68.7 µM) | 7.8 (≈ 34.3 µM) | 31.2 (≈ 137 µM) | 62.5 (≈ 275 µM) | Cc1cccc2cc3c(=O)[nH]c(=O)[nH]c3nc12 | 9 | 15 | 13 | 11 | inactive | 11 | 12 | 11 | 10 | diameter of the inhibition zone (DIZ) (Klebsiella aerogenes [5]): inactive; diameter of the inhibition zone (DIZ) (Pseudomonas aeruginosa [7]): inactive; diameter of the inhibition zone (DIZ) (Penicillium chrysogenum [10]): inactive; diameter of the inhibition zone (DIZ) (Lipomyces lipofer [13]): inactive; diameter of the inhibition zone (DIZ) (Bacillus subtilis [15]): inactive; diameter of the inhibition zone (DIZ) (Rhodotorula mucilaginosa [26]): inactive; zone of inhibition at 1000 µg/disc (Streptomyces albus [27]): 10 mm; diameter of the inhibition zone (DIZ) (Aspergillus niger [28]): inactive; zone of inhibition at 1000 µg/disc (Rhodotorula mucilaginosa [29]): 13 mm; zone of inhibition at 500 µg/disc (Escherichia coli [30]): 14 mm; MIC (Escherichia coli [31]): 3.9 µg/mL (≈ 17.2 µM); diameter of the inhibition zone (DIZ) (Candida albicans [32]): inactive; zone of inhibition at 1000 µg/disc (Aspergillus flavus [33]): 13 mm; zone of inhibition at 1000 µg/disc (Klebsiella aerogenes [34]): 13 mm; diameter of the inhibition zone (DIZ) (Aspergillus niger [35]): inactive; zone of inhibition at 500 µg/disc (Aspergillus flavus [36]): 9 mm |
